Columns and labels:
[1] = test system: wild-type plant cell plastids of tobacco leaf tissue; experiment: Electron microscopic analysis of plastid ultrastructure in tobacco leaf tissue cultured on drug-containing medium; format: cell-based, Nicotiana tabacum cv Petit Havana
Description: (§1) Wild-type plants of Nicotiana tabacum cv Petit Havana were propagated in sterile hormone free MS medium (Murashige and Skoog (1962) Physiol. Plant. 15,473-497) supplemented with B5 vitamins in Phytatrays or sundae cups with a 16-hour photoperiod at 24° C. Leaf sections were aseptically removed and placed into new plant regeneration medium containing various concentrations of glyphosate, spectinomycin and phospinothricin. The leaf material was collected at 1-week and 4-week time points and prepared for electron microscopic observation of plastid ultrastructure. As a control, wild-type leaf sections were exposed to the initially plastid non-lethal antibiotic, spectinomycin, under identical conditions, or to medium without any drug.
Cultured tobacco leaf pieces 1 mm^2 were fixed in 4% glutaraldehyde in 0.1 M sodium cacodylate buffer, pH 7.2 for 3 hours, with the first 30 minutes under vacuum. The tissue was further fixed in 1% osmium tetroxide in the above buffer for 90 minutes and stained with 1% aqueous uranyl acetate for 2 hours. Ethanol and propylene oxide were used to dehydrate the tissue prior to infiltration with a 1:1 mixture of Spurr's:EMbed 812 resin. The resin was polymerized at 60° C. for 48 hours. The resulting blocks were sectioned on a Leica Ultracut E microtome. Sections 80 nm thick were picked up on formvar/carbon-coated copper slot grids. The grids were stained with uranyl acetate and lead citrate in a LKB Ultrastainer and examined with a JEOL 1200 transmission electron microscope. All reagents were obtained from Electron Microscopy Sciences, Fort Washington, Pa.
Tobacco leaf tissue was also analyzed on medium containing lower concentrations of glyphosate. […] Cultured tissue was prepared for electron microscopy as described above.
To test the general effect of herbicides on plastid morphology, we examined tobacco leaf cultures that were grown in the presence of phosphinothricin (PPT, active ingredient in BASTA herbicide) at 4 mg/L, the concentration normally used for nuclear transformation. Leaves from healthy, tobacco plants at the same developmental stage were cut into about 5 mm×5 mm sections and placed on MS/B5 medium with 3% sucrose, 1 mg/L BAP, 0.1 mg/L NAA and 4 mg/L phosphinothricin for the 3, 7 or 12 days. The leaf sections were then fixed and processed for TEM analysis.

[2] = test system: bombarded tobacco leaf explants; experiment: Direct selection of bombarded tobacco leaf explants on lethal level of PPT; format: cell-based, Nicotiana tabacum cv. Havana; details: 4 mg/L PPT, leaves bombarded with pMON53159
Description: Dark green, round leaves are cut, preferably from the middle of the shoots, from 3-6 week old Nicotiana tabacum cv. Havana that have been maintained in vitro on hormone-free MS medium (Murashige and Skoog, (1962) Physiol Plant. 15, 473-497) supplemented with B5 vitamins in Phytatrays or sundae cups with a 16-hour photoperiod at 24° C. Each cut leaf is then placed adaxial side up on sterile filter paper over tobacco shoot regeneration medium (TSO medium: MS salts, 1 mg/L N^6-benzyladenine, 0.1 mg/L 1-naphthaleneacetic acid, 1 mg/L thiamine, 100 mg/L inositol, 7 g/L agar pH 5.8 and 30 g/L sucrose). Leaves are preferably placed in the center of the plate with as much contact with the medium as possible. The plates are preferably prepared immediately prior to use but may be prepared up to a day before transformation by particle bombardment by wrapping in plastic bags and storing at 24° C. overnight.
Plates containing the leaf samples are placed on the second shelf from the bottom of the vacuum chamber and bombarded using the 1100 p.s.i. rupture disk. After bombardment, petri plates containing the leaf samples are wrapped in plastic bags and incubated at 24° C. for 48 hours as a delay period prior to phase one culturing.
Direct selection of phosphinothricin (PPT) resistant transformants on lethal levels of PPT using plasmid pMON53159 carrying the bar gene alone were unsuccessful. […]

[3] = test system: tobacco leaf plant cultures; experiment: Visual appearance of tobacco leaf cultures on drug-containing medium; format: cell-based, Nicotiana tabacum cv Petit Havana
Description: as §1

Structure (SMILES) | plastid ultrastructure (TEM) ([1]; 4 mg/L phosphinothricin, 3 days) | plastid ultrastructure (TEM) ([1]; 4 mg/L phosphinothricin, 7 days) | plastid ultrastructure (TEM) ([1]; 4 mg/L phosphinothricin, 12 days) | appearance of explants under direct selection [2] | plastoglobuli diameter ([1]; 1 μM glyphosate, 7 days) | plastid ultrastructure (TEM) ([1]; 1 μM glyphosate, 7 days, TSO medium) | plastid ultrastructure (TEM) ([1]; 5 μM glyphosate, 7 days) | plastid ultrastructure (TEM) ([1]; 10 μM glyphosate, 7 days) | plastid ultrastructure (TEM) ([1]; 20 μM glyphosate, 3 days) | plastid ultrastructure (TEM) ([1]; 20 μM glyphosate, 7 days) | plastid ultrastructure (TEM) ([1]; 50 μM glyphosate, four weeks) | plastid ultrastructure (TEM) ([1]; 50 μM glyphosate, one week) | plastid ultrastructure (TEM) ([1]; 200 μM glyphosate, four weeks) | plastid ultrastructure (TEM) ([1]; 200 μM glyphosate, one week) | visual effect on plant cultures ([3]; after 1 week) | visual effect on plant cultures ([3]; after 4 weeks, lower concentrations of glyphosate) | plastid ultrastructure (TEM) ([1]; 500 mg/L spectinomycin, four weeks) | plastid ultrastructure (TEM) ([1]; 500 mg/L spectinomycin, one week) | visual effect on plant cultures ([3]; after 4 weeks, spectinomycin)
CP(=O)(O)CC[C@H](N)C(=O)O [PPT, phosphinothricin] | Thylakoid membranes are completely absent | even more dramatic, with oil bodies accumulated in the organelles | even more dramatic, with oil bodies accumulated in the organelles | bleached and demonstrated little or no cell expansion | – | – | – | – | – | – | – | – | – | – | – | – | – | – | –
O=C(O)CNCP(=O)(O)O [glyphosate] | – | – | – | – | approximately 0.25 μm | typical morphology of metabolically active photosynthetic plastids | normal in appearance | normal in appearance | chloroplasts are beginning to show morphological damage | thylakoid membrane system is severely damaged | plastids appear to have recovered or adapted to some degree | reticulate network of thylakoid membranes has disappeared | completely devoid of internal structure | damage to plastid structure is occurring rapidly | minimal effect visually on plant cultures | begin to form shoot primordia indicating recovery of the tissue | – | – | –
CN[C@@H]1[C@H](O)[C@H](NC)[C@H]2O[C@@]3(O)C(=O)C[C@@H](C)O[C@H]3O[C@@H]2[C@H]1O [spectinomycin] | – | – | – | – | – | – | – | – | – | – | – | – | – | – | minimal effect on plant cultures visually | – | plastids internal membranes have broken down almost completely and become vacuolated | plastids look relatively normal | tissue is completely bleached
